Experimental data: ChEMBL document CHEMBL1201862, “PubChem BioAssay data set” (2004)
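Values below derive from 48-hour exposures of cells grown in 96-well plates, with endpoints linearly interpolated between the two concentrations bracketing the appropriate inhibition level. GI50 marks 50% less growth.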 Calls of active or inactive are those of the source. Rule as the data show it: active = GI50 up to about 1.1 µM and inactive = higher.

Columns and labels:
Assay in all cases: inhibition of tumour cell growth, NCI panel, 48 h
A498 = test system: A498
HCT-15 = test system: HCT-15
HT-29 = test system: HT-29
MDA-MB-231 = test system: MDA-MB-231
Hs-578T = test system: Hs-578T
SF-295 = test system: SF-295
SF-268 = test system: SF-268
UACC-257 = test system: UACC-257
MCF7 = test system: MCF7
SK-MEL-5 = test system: SK-MEL-5
LOX IMVI = test system: LOX IMVI
MDA-N = test system: MDA-N
NCI-H226 = test system: NCI-H226
HCT-116 = test system: HCT-116
NCI-H522 = test system: NCI-H522
NCI-H460 = test system: NCI-H460
T47D = test system: T47D
HCC 2998 = test system: HCC 2998
OVCAR-3 = test system: OVCAR-3

Row | SMILES | GI50 (A498) | GI50 (HCT-15) | GI50 (HT-29) | GI50 (MDA-MB-231) | GI50 (Hs-578T) | GI50 (SF-295) | GI50 (SF-268) | GI50 (UACC-257) | GI50 (MCF7) | GI50 (SK-MEL-5) | GI50 (LOX IMVI) | GI50 (MDA-N) | GI50 (NCI-H226) | GI50 (HCT-116) | GI50 (NCI-H522) | GI50 (NCI-H460) | GI50 (T47D) | GI50 (HCC 2998) | GI50 (OVCAR-3)
1 | CC(=O)OC1CC[C@@]2(C)C(=CC[C@@H]3[C@@H]2CC[C@]2(C)C(OC(C)=O)[C@H](n4ccnc4)C[C@@H]32)C1 (stereo partly specified) | 90.4 µM (inactive) | 15.5 µM | 10.7 µM (inactive) | 37.2 µM (inactive) | 47 µM (inactive) | 31.7 µM (inactive) | 41.5 µM (inactive) | 17.3 µM (inactive) | 16.4 µM (inactive) | 16.3 µM (inactive) | 18.7 µM (inactive) | 21 µM (inactive) | 36.6 µM (inactive) | 14.9 µM (inactive) | 14.4 µM (inactive) | 17.4 µM (inactive) |  |  | 
2 | COc1ccc2c(c1)CN1C(=N2)CSC1c1cccc(Br)c1 (stereo unspecified) |  | 11 µM | 20 µM (inactive) | > 100 µM (inactive) | 53.6 µM (inactive) | 30.5 µM (inactive) | 52.8 µM (inactive) | 20.3 µM (inactive) | 10.6 µM (inactive) | 5.71 µM (inactive) | 23.9 µM (inactive) | 4.1 µM (inactive) | 4.86 µM (inactive) | 19 µM (inactive) | 22.6 µM (inactive) | 30.1 µM (inactive) | 52.7 µM (inactive) | 14.8 µM (inactive) | 
3 | COc1ccc2[nH]c3c(c2c1)[C@H]1CCC(C(C)(C)C)C[C@H]1[C@H]1C(=O)N(c2ccccc2)C(=O)[C@@H]31 (stereo partly specified) | 14.7 µM (inactive) | > 100 µM | > 100 µM (inactive) |  |  | 7.18 µM (inactive) | 13.1 µM (inactive) | 24.2 µM (inactive) |  | > 47.6 µM (inactive) | 20.7 µM (inactive) |  | 27.6 µM (inactive) | 12.4 µM (inactive) | 12.1 µM (inactive) | 6.9 µM (inactive) |  | 36 µM (inactive) | 23.3 µM (inactive)
4 | CN1c2ccccc2N(C)C23N(C)c4ccccc4N(C)C12N(C)c1ccccc1N3C (stereo unspecified) | > 100 µM (inactive) | > 100 µM | > 100 µM (inactive) |  |  | > 100 µM (inactive) | > 100 µM (inactive) | > 100 µM (inactive) |  | > 100 µM (inactive) | > 100 µM (inactive) |  | > 100 µM (inactive) | > 100 µM (inactive) | > 100 µM (inactive) | > 100 µM (inactive) |  | > 100 µM (inactive) | 33.6 µM (inactive)
5 | CC(=O)C1(Cc2cccc3ccccc23)S(=O)(=O)OCCOS1(=O)=O | 19 µM (inactive) | 19.2 µM | 17.5 µM (inactive) | 15.8 µM (inactive) |  | 0.843 µM (active) | 19.9 µM (inactive) | 4.11 µM (inactive) | 20.8 µM (inactive) | 12.2 µM (inactive) | 12.1 µM (inactive) | 11.8 µM (inactive) | 16.8 µM (inactive) | 19.6 µM (inactive) | 21.6 µM (inactive) | 17.3 µM (inactive) | 18.5 µM (inactive) | 17.3 µM (inactive) | 19.7 µM (inactive)
6 | O=C1c2ccccc2C(=O)c2nc3c(O)cccc3cc21 | 25.9 µM (inactive) | 13 µM | 21 µM (inactive) |  |  | 12.7 µM (inactive) | 7.96 µM (inactive) | 10.3 µM (inactive) |  | 3.6 µM (inactive) | 13.9 µM (inactive) |  | 74.5 µM (inactive) | 4.12 µM (inactive) | 4.97 µM (inactive) | 9.08 µM (inactive) |  | 35.9 µM (inactive) | 1.87 µM (inactive)
7 | C[n+]1cn(-c2ccc([N+](=O)[O-])cn2)c2ccccc21 | > 100 µM (inactive) | > 100 µM | > 100 µM (inactive) | > 100 µM (inactive) | > 100 µM (inactive) | > 100 µM (inactive) | > 100 µM (inactive) | > 100 µM (inactive) | > 100 µM (inactive) | > 100 µM (inactive) | > 100 µM (inactive) |  | > 100 µM (inactive) | > 100 µM (inactive) |  | > 100 µM (inactive) | > 100 µM (inactive) | > 100 µM (inactive) | > 100 µM (inactive)
8 | Clc1cccc(N/N=N/c2ccc(-c3nc4ccccc4s3)cc2)c1 | > 100 µM (inactive) | 32.4 µM | > 100 µM (inactive) |  | > 100 µM (inactive) | > 100 µM (inactive) |  | > 100 µM (inactive) | 47.5 µM (inactive) | 25.4 µM (inactive) | 53 µM (inactive) | 26.4 µM (inactive) | 94.8 µM (inactive) | 32.7 µM (inactive) | 24.2 µM (inactive) | 50.9 µM (inactive) | 47.9 µM (inactive) | 64.4 µM (inactive) | 51.5 µM (inactive)
9 | Cc1ccc(NCC2(/N=C/c3ccccc3)OC(CO)C(O)C2O)cc1 (stereo unspecified) |  | 26.5 µM | 35.8 µM (inactive) |  |  | 24.3 µM (inactive) | 81.1 µM (inactive) | > 100 µM (inactive) |  | 23.3 µM (inactive) |  |  | > 100 µM (inactive) | 36.6 µM (inactive) | 37.5 µM (inactive) | 32.7 µM (inactive) |  | 91.2 µM (inactive) | 41.7 µM (inactive)
10 | CCN(CC)CCOC(NC(C)=O)(c1ccccc1)c1ccccc1 | > 100 µM (inactive) | > 100 µM | > 100 µM (inactive) | > 100 µM (inactive) | > 100 µM (inactive) | > 100 µM (inactive) | > 100 µM (inactive) | > 100 µM (inactive) | > 100 µM (inactive) | > 100 µM (inactive) |  |  | > 100 µM (inactive) | > 100 µM (inactive) |  | > 100 µM (inactive) | > 100 µM (inactive) | > 100 µM (inactive) | 
11 | COC(=O)c1cc(CC(C)C)c2c(c1)[nH]c1ccccc12 | > 100 µM (inactive) | 52.1 µM | > 100 µM (inactive) |  |  | > 100 µM (inactive) | > 100 µM (inactive) | > 10 µM (inactive) |  | 78.7 µM (inactive) | > 100 µM (inactive) |  | 28.7 µM (inactive) | > 100 µM (inactive) | 68.2 µM (inactive) | > 100 µM (inactive) |  | 70.8 µM (inactive) | > 100 µM (inactive)
12 | O=C(CSCC(=O)N/N=C/c1ccncc1)N/N=C/c1ccncc1 | > 100 µM (inactive) | > 100 µM | > 100 µM (inactive) | > 100 µM (inactive) | > 100 µM (inactive) | > 100 µM (inactive) | > 100 µM (inactive) | > 100 µM (inactive) | > 100 µM (inactive) | > 100 µM (inactive) | > 100 µM (inactive) |  | > 100 µM (inactive) | > 100 µM (inactive) | > 100 µM (inactive) | > 100 µM (inactive) | > 100 µM (inactive) | > 100 µM (inactive) | > 100 µM (inactive)
13 | COC(=O)c1cc(/C=C/C(=O)Cc2ccccc2)cn1S(=O)(=O)c1ccccc1 |  | 7.38 µM | > 100 µM (inactive) | > 100 µM (inactive) | > 100 µM (inactive) | > 100 µM (inactive) | > 100 µM (inactive) | > 100 µM (inactive) | > 100 µM (inactive) | > 100 µM (inactive) | > 100 µM (inactive) | > 100 µM (inactive) |  | > 100 µM (inactive) | > 100 µM (inactive) | > 100 µM (inactive) | > 100 µM (inactive) | > 100 µM (inactive) | > 100 µM (inactive)
14 | CC(=O)OC[C@@]12Cc3ccc(C)c(O)c3[C@]1(C)[C@@H](OC(C)=O)[C@]1(O)[C@H]([C@@H](OC(=O)c3ccccc3)[C@@H](C)[C@H]1OC(C)=O)[C@H]2OC(C)=O | > 50 µM (inactive) | > 50 µM |  | > 50 µM (inactive) | > 50 µM (inactive) | > 50 µM (inactive) | > 50 µM (inactive) | > 50 µM (inactive) | > 50 µM (inactive) | > 50 µM (inactive) | > 50 µM (inactive) |  | > 50 µM (inactive) | > 50 µM (inactive) | > 50 µM (inactive) | > 50 µM (inactive) | > 50 µM (inactive) | 22 µM (inactive) | > 50 µM (inactive)
15 | C/C(=N\Nc1nc2ccccc2[nH]1)c1ccc2ccccc2n1 |  | 1.29 µM | 0.948 µM (active) | 1.87 µM (inactive) | 10.8 µM (inactive) | 2.49 µM (inactive) | 1.97 µM (inactive) | 3.55 µM (inactive) | 2.17 µM (inactive) | 1.46 µM (inactive) | 2.11 µM (inactive) | 3.97 µM (inactive) |  | 1.95 µM (inactive) | 2.33 µM (inactive) | 2.25 µM (inactive) | 0.343 µM (active) |  | 0.592 µM (active)
16 | NC1=NCC(CN2CCCCC2)O1 (stereo unspecified) |  | > 100 µM | > 100 µM (inactive) | > 100 µM (inactive) | > 100 µM (inactive) | > 100 µM (inactive) | > 100 µM (inactive) | > 100 µM (inactive) | > 100 µM (inactive) | > 100 µM (inactive) | > 100 µM (inactive) | > 100 µM (inactive) | > 100 µM (inactive) | > 100 µM (inactive) | > 100 µM (inactive) | > 100 µM (inactive) | > 100 µM (inactive) |  | > 100 µM (inactive)
17 | O=C(c1cc2ccccc2[nH]1)C(O)(c1cc2ccccc2[nH]1)c1cc2ccccc2[nH]1 |  | > 246 µM | > 246 µM (inactive) |  |  | 154 µM (inactive) | > 246 µM (inactive) | > 246 µM (inactive) |  | > 246 µM (inactive) | > 246 µM (inactive) |  | 50.9 µM (inactive) | 16.6 µM (inactive) | > 246 µM (inactive) | > 246 µM (inactive) |  | > 246 µM (inactive) | 20 µM (inactive)
